# Test results from patent US8784856B2, “Meadowfoam-based bioherbicide products” (The State of Oregon Acting by and Through the State Boad of …, priority 2007, dated 2014).
# Entries after “also recorded” stand apart in the source; their conditions may differ.
# Experiments:
# [1] = Degradation of GLN in aqueous FeSO4 solution (HPLC); format: physicochemical; conditions: 1 mM GLN with 10 mM FeSO4 at room temperature; FIG. 3B
# Description: HPLC. The HPLC equipment consisted of a Waters Delta 600 solvent delivery system, a Waters 717 plus Autosampler, a Waters 2996 photodiode array detector, a Waters 600 controller and a data acquisition/processing computer with Empower™ software (Waters, Milford, Mass.). In HPLC system 1, separations were achieved on a reverse-phase Lichrosphere 5 μm C18 column (4×250 mm, Phenomenex, Torrance, Calif.). The HPLC solvents were 0.1% aqueous trifluoroacetic acid (solvent A) and MeCN (solvent B). A linear solvent gradient was employed starting from 5% solvent B in solvent A to 100% B over 30 min at a flow rate of 1.0 mL/min. After returning to the starting conditions in 1 min, the column was equilibrated for 10 min before the next injection. The injection volume was 20 μL. On-line UV spectra were recorded in the range 220-500 nm and the λ274 nm trace was used for calculation of peak areas. Analyte concentrations were determined from calibration curves constructed for each analyte.
# [2] = tested on: downy brome (Bromus tectorum) seeds; assay: Assay for herbicidal activity: downy brome seed germination in soil; format: in vivo; conditions: for inhibition of downy brome germination at the highest concentration tested: 0.89 mg g^−1, FIG. 11; for effectiveness in inhibiting downy brome germination, in words: FIG. 11, comparison of compounds 1-4; for activity as seed germination inhibitors (downy brome): compared with MBITC, 82 hours and 168 hours, FIG. 8
# Experimental: Assay for herbicidal activity. About 45 g of clean soil was weighed into 10-cm diameter Petri dishes. For germination testing of individual compounds (1-4), 15.0 mL of test solution was added to each dish. Glucolimanthin 1 (GLN) was dissolved in water and compounds 2-4 in ethanol. The ethanolic solutions were applied to the dishes, allowed to evaporate overnight in a hood, and then 15 mL of water was added to the dishes. Meal products were mixed with soil, followed by the addition of 15 mL of water. Fifteen seeds of Bromus tectorum were placed in concentric circles within each dish. Petri dishes with lids were placed in an incubator at 20° C. during day time (8 hrs) and at 15° C. at night time (16 hrs) for 7 days. Germination was recorded as root emergence.
# Wheat [3] = conditions: in vivo; cited from earlier work
# [4] = tested on: root lesion nematode (Pratylenchus neglectus); conditions: in vivo; cited from earlier work
# [5] = tested on: potato cyst Nematode (Globodera rostochiensis Ct. Woll); conditions: in vivo; cited from earlier work
# fungi = conditions: cited from earlier work
# [6] = tested on: postharvest fruit pathogens; conditions: cited from earlier work
# [7] = tested on: velvetleaf, sicklepod, milo, and pitted morning glory; conditions: formulated as granules; all weed types; cited from earlier work
# Aphamyces euteiches = conditions: cited from earlier work
# [8] = tested on: velvetleaf (Abutilon theophrasti); conditions: in vivo; cited from earlier work
# Wheat [9] = conditions: in vivo; cited from earlier work; remark: listed apart in the source
# [10] = tested on: fall armyworm (Lepidoptera: Noctuidae); conditions: compared with benzyl ITC and synthetic analogs; cited from earlier work
# phase 2 enzymes = conditions: after treatment; cited from earlier work
# [11] = tested on: benzo[a]pyrene-induced stomach tumors; conditions: mice dosed with test compound; cited from earlier work
# [12] = tested on: human retinal pigment epithelial cells, keratinocytes, and mouse leukemia cells; conditions: cited from earlier work
# Helicobacter pylori = conditions: cited from earlier work
# [13] = tested on: phase II enzymes (e.g., NAD(P)H:quinone reductase); conditions: cited from earlier work
# [14] = tested on: skin damage by UV radiation; conditions: human subjects, topically applied; cited from earlier work
smiles,measurement,setting,value
"COc1cccc(C/C(=N/OS(=O)(=O)O)S[C@@H]2O[C@H](CO)[C@@H](O)[C@H](O)[C@H]2O)c1 [GLN, glucolimnanthin]",degradation of GLN,[1],did not result in significant degradation
same,inhibition of downy brome germination at the highest concentration tested,[2],only slightly inhibited
same,"effectiveness in inhibiting downy brome germination, in words",[2],least effective
same,effect of GLN on downy brome seed germination,"[2]; levels corresponding to those found in MSM (0.4 mg GLN per g soil), 7 days, FIG. 7",no germination inhibitory activity; also recorded: no effect; also recorded: No difference
S=C=NCCc1ccccc1 [2-phenylethyl ITC],order of effectiveness against wheat,Wheat [3],2-phenylethyl ITC>allyl ITC>benzyl ITC
same,effect on root lesion nematode,[4],suppression
same,activity on potato cyst nematode,[5],performed well
same,activity against fungi,fungi,good activity
Oc1ccc(CN=C=S)cc1 [4-hyxdroxybenzl],activity against spore germination,[6],equal
S=C=NCc1ccccc1 [benzyl ITC],order of effectiveness against wheat,Wheat [3],2-phenylethyl ITC>allyl ITC>benzyl ITC
same,inhibition of weed germination,[7],inhibition of germination
same,activity against spore germination,[6],lower activity
same,activity on potato cyst nematode,[5],performed well
same,activity against fungi,fungi,good activity
C=CCCN=C=S [3-butenyl ITC],activity against spore germination,[6],lower activity
C=CCN=C=S [allyl ITC],order of effectiveness against wheat,Wheat [3],2-phenylethyl ITC>allyl ITC>benzyl ITC
same,activity against spore germination,[6],equal
same,performance against pathogen causing pea root rot,Aphamyces euteiches,performed well
same,activity on potato cyst nematode,[5],performed well
CS/C=C/CCN=C=S [trans-4-methylthio-3-butenyl ITC],activity against spore germination,[6],equal
same,activity against fungi,fungi,good activity
"COc1cccc(CC#N)c1 [MPAN, 3-Methoxyphenylacetonitrile]",seed germination inhibitory / allelopathic activity against velvetleaf,[8],seed germination inhibitory effects
same,inhibition of downy brome germination at the highest concentration tested,[2],completely inhibiting
same,"effectiveness in inhibiting downy brome germination, in words",[2],most effective
same,activity as seed germination inhibitors (downy brome),[2],more active
same,seed germination inhibitory / allelopathic activity against wheat,Wheat [9],seed germination inhibitory effects
"COc1cccc(CN=C=S)c1 [MBITC, 3-Methoxybenzyl isothiocyanate]",seed germination inhibitory / allelopathic activity against velvetleaf,[8],greater activity
same,effectiveness against armyworm,[10],more effective
same,inhibition of downy brome germination at the highest concentration tested,[2],failed to completely inhibit
same,"effectiveness in inhibiting downy brome germination, in words",[2],not as effective
same,activity as seed germination inhibitors (downy brome),[2],moderately active
same,seed germination inhibitory / allelopathic activity against wheat,Wheat [9],greater activity
"C[S+]([O-])CCCCN=C=S (stereo not shown) [sulforaphane, 4-methylsulfinylbuthyl ITC]",phase 2 enzymes in mouse and human skin,phase 2 enzymes,Up-regulation
same,effect on benzo[a]pyrene-induced stomach tumors,[11],blocked
same,glutathione after treatment,[12],increase
same,protection of cells against oxidative damage,[12],powerful and prolonged protection
same,antibacterial properties against Helicobacter pylori,Helicobacter pylori,bacteriostatic and bactericidal properties
same,induction of phase II enzymes,[13],high activity
same,erythema and inflammation induced by UV radiation,[14],reduced
CN=C=S [methyl ITC],performance against pathogen causing pea root rot,Aphamyces euteiches,performed well
